Experimental data from patent US8901118B2, “Compounds and methods for kinase modulation, and indications therefor” (Plexxikon Inc., priority 2010, dated 2014).

How the values were obtained:
[1] = tested on: Osteoclast precursor cells; assay: Osteoclast differentiation assay (acid phosphatase readout); format: cell-based
BCR-FMS BaF3 cells = assay: Splenomegaly mouse model, BCR-FMS BaF3 cells; format: in vivo; details: dosed once per day at 10 mg per kg
Outline: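 Female nu/nu mice given 5×10^6 engineered BaF3 cells i.v. on day 1; compound in 1.0% Polysorbate 80/0.5% HPMC/2.5% DMSO dosed orally once (sometimes twice) daily, days 10-18. Spleens weighed 4 h after final dose; % spleen growth inhibition calculated versus vehicle control.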

IC50 [1] [nM] | Compound | % spleen growth inhibition, Fms (BCR-FMS BaF3 cells) [%]
< 100 | Cc1cnc2[nH]cc(Cc3ccc(NC4CCCCC4)nc3F)c2c1 [Compound P-3008, cyclohexyl-[6-fluoro-5-(5-methyl-1H-pyrrolo[2,3-b]pyridin-3-ylmethyl)-pyridin-2-yl]-amine] | –
– | O=C(c1cnc(NC2CCC(F)(F)CC2)c(F)c1)c1c[nH]c2ncnc(NC3CC3)c12 [Compound P-4053, [4-(cyclopropylamino)-7H-pyrrolo[2,3-d]pyrimidin-5-yl]-[6-[(4,4-difluorocyclohexyl)amino]-5-fluoro-3-pyridyl]methanone] | 69
